{"source": "patent US20060052404A1", "about": "“Pharmaceutical formulations comprising substituted xanthine compounds” (priority 2001, published 2006)", "key": {"[1]": {"tested_on": "human epithelial cell line expressing the CFTR-ΔF508 mutation", "conditions": "cells having the CFTR-ΔF508 mutation; cited from earlier work"}, "[2]": {"assay": "CPX absorption profile in rats, water vs corn oil formulation, single oral gavage", "type": "in vivo", "conditions": "rat, 1.4 mg/kg single oral gavage, during the course of the experiment", "quoted_text": "Experimental—This study was designed to determine the pharmacokinetics of CPX bioavailability in blood plasma following a single oral administration by oral gavage to male Sprague-Dawley rats. The CPX compound was suspended in either a corn oil or water formulation and administered once via oral gavage at 10 ml/kg of rat weight to two groups of male Sprague-Dawley rats.\nThe rats were not fasted prior to blood collection. Approximately 0.4 ml of whole blood was collected from each animal into heparinized tubes via puncture of the orbital sinus under 70% CO2/30% O2 anesthesia. Approximately 0.2 ml of plasma was separated by centrifugation and analyzed for CPX concentration using high performance liquid chromatography (HPLC) with mass spectrometric detection. Following the completion of blood collection, all surviving animals were euthanized by carbon dioxide overdose.\nRat plasma CPX concentration as a function of time (in hours) using the two formulations was measured. Each rat in this experiment (n=10) received a 1.4 mg/kg CPX dose, which was equivalent to a 100 mg dose. Ten rats were used at each time point to generate a mean CPX concentration value."}, "CFTR-ΔF508 NBF-1": {"target": "CFTR-ΔF508 NBF-1 (Homo sapiens, UniProt P13569, DEL508-508)", "sequence (P13569 with tags, fused parts or gaps DEL508-508 limits assumed)": "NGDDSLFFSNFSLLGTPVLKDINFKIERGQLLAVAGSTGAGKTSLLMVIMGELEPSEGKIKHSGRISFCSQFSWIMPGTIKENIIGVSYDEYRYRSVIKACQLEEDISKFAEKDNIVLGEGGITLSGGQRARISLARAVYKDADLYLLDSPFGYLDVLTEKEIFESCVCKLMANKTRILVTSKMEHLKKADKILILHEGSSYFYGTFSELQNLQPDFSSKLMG", "conditions": "cited from earlier work"}, "CFTR-ΔF508": {"target": "CFTR-ΔF508 (Homo sapiens, UniProt P13569, DEL508-508)", "sequence (P13569 with tags, fused parts or gaps DEL508-508)": "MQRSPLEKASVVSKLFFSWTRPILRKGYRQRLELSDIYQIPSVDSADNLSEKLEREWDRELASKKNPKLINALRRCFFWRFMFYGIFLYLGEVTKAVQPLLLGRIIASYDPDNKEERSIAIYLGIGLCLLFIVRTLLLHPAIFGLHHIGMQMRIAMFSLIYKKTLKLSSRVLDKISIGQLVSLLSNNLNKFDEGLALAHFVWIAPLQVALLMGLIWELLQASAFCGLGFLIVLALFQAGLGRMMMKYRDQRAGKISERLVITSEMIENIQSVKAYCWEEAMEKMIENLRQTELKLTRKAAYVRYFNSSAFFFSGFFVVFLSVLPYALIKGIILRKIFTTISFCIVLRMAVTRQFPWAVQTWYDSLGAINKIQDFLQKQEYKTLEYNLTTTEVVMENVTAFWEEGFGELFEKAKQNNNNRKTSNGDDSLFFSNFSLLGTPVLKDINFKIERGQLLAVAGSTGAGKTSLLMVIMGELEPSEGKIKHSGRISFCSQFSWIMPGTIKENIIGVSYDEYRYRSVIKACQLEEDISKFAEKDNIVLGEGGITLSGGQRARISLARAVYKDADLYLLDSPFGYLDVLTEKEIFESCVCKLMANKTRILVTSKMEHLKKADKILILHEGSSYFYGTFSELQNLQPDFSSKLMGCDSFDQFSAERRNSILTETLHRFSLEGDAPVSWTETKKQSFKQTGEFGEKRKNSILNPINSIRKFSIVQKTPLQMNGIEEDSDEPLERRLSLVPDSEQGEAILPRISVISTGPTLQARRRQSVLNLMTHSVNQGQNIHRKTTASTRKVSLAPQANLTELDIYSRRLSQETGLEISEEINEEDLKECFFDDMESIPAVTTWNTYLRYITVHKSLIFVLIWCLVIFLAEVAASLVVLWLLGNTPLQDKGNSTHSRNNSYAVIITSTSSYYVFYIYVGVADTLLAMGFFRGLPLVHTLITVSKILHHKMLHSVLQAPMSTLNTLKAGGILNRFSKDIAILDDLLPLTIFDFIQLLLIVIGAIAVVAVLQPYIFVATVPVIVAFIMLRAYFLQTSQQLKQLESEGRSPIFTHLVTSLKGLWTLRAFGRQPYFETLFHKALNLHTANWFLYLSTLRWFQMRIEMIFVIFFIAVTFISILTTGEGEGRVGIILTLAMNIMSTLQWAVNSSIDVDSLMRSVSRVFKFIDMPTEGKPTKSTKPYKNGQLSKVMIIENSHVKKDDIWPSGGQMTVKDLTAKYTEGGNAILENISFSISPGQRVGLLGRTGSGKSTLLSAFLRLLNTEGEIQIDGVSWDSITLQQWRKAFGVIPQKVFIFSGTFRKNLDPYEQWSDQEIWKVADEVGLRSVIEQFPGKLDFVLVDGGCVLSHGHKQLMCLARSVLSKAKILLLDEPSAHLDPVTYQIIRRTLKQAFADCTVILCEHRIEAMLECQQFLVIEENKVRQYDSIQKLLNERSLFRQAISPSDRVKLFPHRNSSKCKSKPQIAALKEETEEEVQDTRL", "conditions": "cited from earlier work"}, "[3]": {"assay": "Solubility of CPX in solvents tested", "type": "physicochemical", "conditions": "any of the solvents tested, despite use of co-solvents", "source_text": "This EXAMPLE describes the CPX formulations used in the present invention. Adequate solubility of CPX was unattainable in any of the solvents tested, even despite the use of co-solvents. This insolubility necessitated the use of the suspension and capsule formulations, as described below. One formulation was left non-homogenized to study the effect of homogenization on bioavailability."}, "[4]": {"assay": "Mutagenicity and adverse side effects of oral doses in animal model systems", "type": "in vivo", "conditions": "oral doses to rat, guinea pig, mouse or dog model systems"}, "[5]": {"tested_on": "cell derived from a cystic fibrosis patient", "conditions": "cited from earlier work"}, "[6]": {"assay": "Adverse side effects of oral doses in human subjects", "type": "in vivo", "conditions": "oral doses to human subjects"}, "[7]": {"assay": "CPX absorption profiles of four suspension formulations in dogs, single oral dose", "type": "in vivo, male Beagle dogs", "conditions": "dog, 30 mg/kg oral", "procedure": "Experimental—This study was designed to determine the relative bioavailability of a single oral CPX dose when administered by gavage to male Beagle dogs. The CPX dosages was administered in a single 30 mg/kg oral dose in four different suspension formulations. These suspension formulations were: • 1) xanthan gum (homogenized), • 2) sodium carboxymethylcellulose [NaCMC] (homogenized), • 3) sodium carboxymethylcellulose [NaCMC] (non-homogenized), and • 4) corn oil (homogenized).\nEach formulation contained CPX at a nominal concentration of 60 mg/gram of suspension. […]\nWhole blood samples were collected (approx. 3 ml/sample) by jugular venipuncture into sodium heparin-containing collection tubes. […] The whole blood was centrifuged to isolate plasma, and concentrations of CPX in the plasma at these time intervals were determined using high performance liquid chromatography (HPLC) with mass spectrometric detection, with a lower quantitation limit of 1 ng/ml.\nThe following pharmacokinetic parameters were determined for each experimental CPX formulation: • Cmax—maximum analyte concentration in the plasma, ng/ml • Tmax—time of maximum analyte concentration in the plasma • T1/2—terminal half-life of the drug • AUClast—area under the curve (AUC) from time 0 to the last measurable concentration. […] Expressed as ng·h/ml AUC(0∞)—area under the curve from time 0 to infinity (also written AUCinf or AUC∞)"}, "A1 adenosine receptor": {"target": "T1, A1 adenosine receptor (Homo sapiens, UniProt P30542)", "T1 sequence (P30542 1-326)": "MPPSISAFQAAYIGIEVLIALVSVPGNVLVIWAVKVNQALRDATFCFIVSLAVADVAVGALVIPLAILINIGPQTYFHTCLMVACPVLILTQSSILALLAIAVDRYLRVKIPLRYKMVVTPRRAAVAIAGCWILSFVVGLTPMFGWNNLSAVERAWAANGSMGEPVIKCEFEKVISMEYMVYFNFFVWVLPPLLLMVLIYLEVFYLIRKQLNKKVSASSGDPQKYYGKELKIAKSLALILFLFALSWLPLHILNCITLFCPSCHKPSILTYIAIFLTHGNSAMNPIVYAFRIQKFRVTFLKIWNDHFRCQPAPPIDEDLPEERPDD", "conditions": "cited from earlier work"}, "NBF-1 region of CFTR": {"target": "NBF-1 region of CFTR (Homo sapiens, UniProt P13569)", "sequence (P13569 423-646 limits assumed)": "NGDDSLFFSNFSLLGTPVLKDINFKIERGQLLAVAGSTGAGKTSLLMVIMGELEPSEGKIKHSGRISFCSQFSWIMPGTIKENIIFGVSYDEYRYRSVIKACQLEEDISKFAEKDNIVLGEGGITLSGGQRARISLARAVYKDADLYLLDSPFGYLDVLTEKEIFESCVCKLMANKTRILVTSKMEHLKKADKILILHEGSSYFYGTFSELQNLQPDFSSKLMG", "conditions": "cited from earlier work"}, "isolated CFTR channels": {"target": "isolated CFTR channels (Homo sapiens, UniProt P13569)", "sequence (P13569 whole entry)": "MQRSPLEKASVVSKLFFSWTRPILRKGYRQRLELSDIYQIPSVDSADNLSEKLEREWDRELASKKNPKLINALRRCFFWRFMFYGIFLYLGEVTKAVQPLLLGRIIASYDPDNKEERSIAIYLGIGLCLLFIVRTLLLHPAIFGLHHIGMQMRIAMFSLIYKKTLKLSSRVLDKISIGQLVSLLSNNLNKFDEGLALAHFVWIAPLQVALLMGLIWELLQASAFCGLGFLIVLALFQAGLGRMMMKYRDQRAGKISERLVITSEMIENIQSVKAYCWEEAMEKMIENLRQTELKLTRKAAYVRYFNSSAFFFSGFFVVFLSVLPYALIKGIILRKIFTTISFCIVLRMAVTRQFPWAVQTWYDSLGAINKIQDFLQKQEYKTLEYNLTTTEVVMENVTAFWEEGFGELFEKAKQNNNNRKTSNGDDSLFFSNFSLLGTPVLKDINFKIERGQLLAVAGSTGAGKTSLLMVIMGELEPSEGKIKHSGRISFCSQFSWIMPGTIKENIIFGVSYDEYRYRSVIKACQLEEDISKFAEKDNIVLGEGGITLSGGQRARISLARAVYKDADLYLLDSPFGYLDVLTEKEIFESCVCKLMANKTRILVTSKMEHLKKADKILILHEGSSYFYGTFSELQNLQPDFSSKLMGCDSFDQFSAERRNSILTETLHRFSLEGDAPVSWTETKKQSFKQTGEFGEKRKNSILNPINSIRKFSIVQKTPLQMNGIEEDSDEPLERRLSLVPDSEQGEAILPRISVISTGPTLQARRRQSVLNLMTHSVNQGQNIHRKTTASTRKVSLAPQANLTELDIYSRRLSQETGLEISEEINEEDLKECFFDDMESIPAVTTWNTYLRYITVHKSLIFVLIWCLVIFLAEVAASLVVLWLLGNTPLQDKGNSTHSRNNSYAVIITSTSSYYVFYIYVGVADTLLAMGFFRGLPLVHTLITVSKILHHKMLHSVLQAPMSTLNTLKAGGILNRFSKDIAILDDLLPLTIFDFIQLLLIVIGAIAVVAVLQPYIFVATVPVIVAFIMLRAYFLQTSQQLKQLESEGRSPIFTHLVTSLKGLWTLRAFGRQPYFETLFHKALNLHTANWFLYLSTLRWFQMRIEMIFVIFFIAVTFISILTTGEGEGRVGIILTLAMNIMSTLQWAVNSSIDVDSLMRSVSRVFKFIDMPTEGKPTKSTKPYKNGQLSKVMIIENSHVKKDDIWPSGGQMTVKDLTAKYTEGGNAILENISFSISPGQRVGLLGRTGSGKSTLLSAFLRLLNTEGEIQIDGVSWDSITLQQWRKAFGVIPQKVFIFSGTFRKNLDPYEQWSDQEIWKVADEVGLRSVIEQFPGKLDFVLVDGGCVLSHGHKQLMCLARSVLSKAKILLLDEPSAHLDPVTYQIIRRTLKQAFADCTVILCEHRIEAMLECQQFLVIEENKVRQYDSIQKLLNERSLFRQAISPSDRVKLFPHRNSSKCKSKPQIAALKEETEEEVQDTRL", "conditions": "in vitro lipid bilayers; cited from earlier work"}}}
{"compound": "CCCn1c(=O)c2[nH]c(-c3ccc(OCC(=O)NCCN)cc3)nc2n(CCC)c1=O", "note": "[xanthine amino congener]", "values": [{"measurement": "chloride efflux", "setting": "[1]", "value": "activating chloride ion efflux"}]}
{"compound": "1,3-dipropyl-7-methylcyclopenthylxanthine [DP-CPX]", "values": [{"measurement": "chloride efflux", "setting": "[1]", "value": "activating chloride ion efflux"}]}
{"compound": "CCCn1c(=O)c2[nH]c(C3CCCC3)nc2n(CCC)c1=O", "note": "[CPX, 1,3-dipropyl-8-cyclopentylxanthine]", "values": [{"measurement": "mortality or signs of morbidity", "setting": "[2]", "value": "no mortality or signs of morbidity"}, {"measurement": "affinity for CFTR-ΔF508 NBF-1 versus wild-type CFTR NBF-1", "setting": "CFTR-ΔF508 NBF-1", "value": "greater"}, {"measurement": "intracellular trafficking and maturation of CFTR-ΔF508", "setting": "CFTR-ΔF508", "value": "enhances"}, {"measurement": "adequate solubility", "setting": "[3]", "value": "unattainable"}, {"measurement": "mutagenicity or grossly apparent adverse side effects", "setting": "[4]", "value": "does not appear to display any mutagenicity or grossly apparent adverse side effects"}, {"measurement": "chloride efflux", "setting": "[1]", "value": "promotes chloride efflux"}, {"measurement": "chloride efflux", "setting": "[5]", "value": "activates"}, {"measurement": "apparent adverse side effects", "setting": "[6]", "value": "no apparent adverse side effects"}, {"measurement": "time of measured peak concentrations of CPX in the plasma after oral dosing", "setting": "[7]", "value": "≤ 5", "unit": "h"}, {"measurement": "A1 adenosine receptor antagonism", "setting": "A1 adenosine receptor", "value": "potent"}, {"measurement": "binding to the NBF-1 region of CFTR", "setting": "NBF-1 region of CFTR", "value": "binds"}, {"measurement": "activation of isolated CFTR channels", "setting": "isolated CFTR channels", "value": "activates"}]}
{"compound": "C=CCn1c(=O)c2[nH]c(C3CCCCC3)nc2n(CC=C)c1=O", "note": "[DAX, N,N-diallylcyclohexylxanthine]", "values": [{"measurement": "chloride efflux", "setting": "[1]", "value": "activating chloride ion efflux"}]}
{"compound": "Cn1c(=O)c2c(nc(C3CCCCC3)n2C)n(C)c1=O", "note": "[CHC, cyclohexylcaffeine]", "values": [{"measurement": "chloride efflux", "setting": "[1]", "value": "activating chloride ion efflux"}]}
